Results reported in article PMC3517478 (BMC Neurology, 2012).
Substitutions are numbered along the chain they refer to. Values joined by “and” are separate entries in the source; they are usually repeats but may differ in a detail not shown here. Identical values can stand only once.

Experiments:
[1] = biological target: T1, human α1S267I-GlyR expressed in HEK 293 cells (Homo sapiens, UniProt P23415, S295I); assay: Whole-cell patch-clamp, positive allosteric modulation of glycine (EC20) induced currents; assay type: cell-based; design: expressed in transfected cells; host or cells: HEK 293 (transient, electroporation; pcDNA1amp vector); details: S267I
T1 sequence (P23415 29-457 S295I): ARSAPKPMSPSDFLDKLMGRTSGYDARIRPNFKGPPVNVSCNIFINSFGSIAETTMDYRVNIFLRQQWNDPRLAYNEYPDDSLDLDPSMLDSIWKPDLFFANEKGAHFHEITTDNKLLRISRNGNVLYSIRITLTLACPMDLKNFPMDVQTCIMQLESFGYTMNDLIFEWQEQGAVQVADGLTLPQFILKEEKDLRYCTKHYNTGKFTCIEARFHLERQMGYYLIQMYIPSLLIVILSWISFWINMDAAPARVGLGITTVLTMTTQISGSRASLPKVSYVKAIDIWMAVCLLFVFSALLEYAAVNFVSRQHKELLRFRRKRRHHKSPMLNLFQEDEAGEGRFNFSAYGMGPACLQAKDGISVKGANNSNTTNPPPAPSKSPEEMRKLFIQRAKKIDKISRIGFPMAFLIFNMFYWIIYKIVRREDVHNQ
Description: Drug-containing vials were vigorously vortexed for 30min.
A new cell was used for each protocol and at least four different experiments were performed for each condition. The concentration of the diluent EtOH corresponding to the highest drug concentration used was 17150 μM.
Currents were filtered at 2 kHz.
Currents were normalized to their own maximum response.

[2] = biological target: T2, human α1-GlyR (WT) expressed in HEK 293 cells (Homo sapiens, UniProt P23415)
T2 sequence (P23415 29-457): T1 sequence (P23415 29-457 S295I) with I267S
Excerpt: Human α1-, α1R271Q-, α1R271L-, α1R271K and α1S267I-GlyR subunits were transiently transfected into human embryonic kidney cells (HEK 293, ATCC, Manassas, USA). The wild type α1-GlyR -cDNA was cloned in pCIS2 (Invitrogen, San Diego, USA) vector and provided by Prof. Heinrich Betz (Max-Planck-Institut für Hirnforschung, Frankfurt am Main, Germany). For the plasmid cDNA of the mutated α1R271Q-, α1R271L-, α1R271K- and α1S267I-GlyR the eukaryotic expression vector pcDNA1amp (Invitrogen, San Diego, USA), under the control of cytomegalovirus promoter, was used. For site-directed mutagenesis, single stranded template cDNA was synthesized from M13 origin of replication and the mutations of arginine residue (R) at position 271 to glutamine (R271Q), leucine (R271L) or lysine (R271K) and mutation of serine residue (S) at position 267 to isoleucine (S267I) were generated using standard procedures. […] Wild type and mutated α1-GlyR subunits efficiently form homomeric receptors in heterologous expression systems.
HEK 293 cells were cultured in medium containing HAMS’F-12 (Biochrom, Berlin, Germany), supplemented with 10% fetal bovine serum (FBS, Biochrom, Berlin, Germany), 100 U ml^–1 penicillin and 100μgml^–1 streptomycin (Gibco BRL, Life Technologies, Karlsruhe, Germany) at 37°C in a 5% CO2/ 95% air incubator. For transfection cells were suspended in a buffer containing 50mM K2HPO4 (Fluka BioChemika, Seelze, Germany), 20mMK-acetate (Sigma-Aldrich, Taufkirchen, Germany) and 25mM MgSO4 (Sigma-Aldrich, Taufkirchen, Germany) at pH 7.35. To visualize transfected cells, they were co-transfected with cDNA encoding for enhanced green fluorescent protein (EGFP) contained in the pEGFP-N1 expression vector (Clontech, Palo Alto, USA). The corresponding cDNA (5μg for the GlyR and 2.5μg for EGFP) was added to 400μl of the cell suspension and the mixture was rapidly transferred into the electroporation cuvette. For transfection we used an electroporation device by EquiBio (Kent, UK) and a 4mm aluminum electrode electroporation cuvette (Peqlab, Erlangen, Germany).
The phenol derivative 4-chloropropofol ([…]) was provided as pure substance by Prof. Paul M. O’Neill (University of Liverpool, England), prepared as light-protected 1M stock solution in ethanol (EtOH, J.T.Baker, Griesheim, Germany) and stored in glass vessels at −20°C.
Drug-containing vials were vigorously vortexed for 30min. Patch electrodes were filled with an intracellular solution of [mM] KCl 140, MgCl2 2, EGTA 11, HEPES 10, glucose 11, CaCl2 1 with pH 7.3, adjusted with 1 M KOH and a bath solution contained [mM] NaCl 162, KCl 5.31, NaHPO4 0.85, KH2PO4 0.22, HEPES 15, glucose 6.11, pH 7.4 adjusted with 1 M NaOH. Osmolarity of both solutions was set at 280–300 mOsmol.
Whole-cell experiments were performed at a holding potential of −30 mV with a mean seal resistance of 1 GΩ. […] A fast liquid filament switch technique was used for the application of the agonist, presented in pulses of 2 s duration every 20 s. The liquid filament switch technique is able to exchange the solution passing an outside-out patch or small whole-cells within 1–2 ms. We calculated flow rate of background solution through the chamber with 3,4 ml/min corresponding to 4% of maximal pump rate. With regard to the chamber volume of 100 μl the exchange solution time within the chamber was assessed to approximately […], dependent on cell size accordingly. Piezo-switch and small diameter capillary (ID 0.15 mm) within the measurement chamber promoted the millisecond solution exchange. […] The induced current (I) by this saturating control solution was defined as Icontrol. […] The stability of the seal was controlled during the complete experiment via control of the seal resistance. A variation of 10-20% of the basic value was regarded as tolerable.

[3] = system: human alpha1 glycine receptor; details: human alpha1 glycine receptors in HEK293; cited from earlier work

Q: Which “positive allosteric modulation nH ± SEM” value ([1]; EC20 glycine 30 μM) does the source give for “4-chloro-2,6-dimethylphenol [4-chloropropofol]” here?
A: 0.7 ± 0.3

Q: What about the EC50 ([1]; co-applied with sub-saturating (EC20) glycine 30 μM, read-out: positive allosteric modulation EC50 ± SEM) of the same molecule?
A: 55 µM and 55.1 µM

Q: What about the “positive allosteric modulation, potentiation [% of peak current amplitude] ± SEM” value ([1]; maximal positive allosteric modulation, EC20 glycine 30 μM) of the same molecule?
A: 128 ± 14%

Q: With NCC(=O)O [glycine] as the molecule, how does the “Current amplitude [% of mean WT current amplitude] ± SEM” value [2] read?
A: 100.0±26%

Q: What about the “nH ± SEM (Hill coefficient), glycine activation” value [2] of the same molecule?
A: 0.8 and 0.8±0.7

Q: And the “Rise time ± SEM” value ([2]; 10-90% of Imax, monoexponential fit)?
A: 3.7 ms and 3.7 ± 0.8 ms

Q: What about the “Mean current amplitude ± SEM” value ([2]; saturating glycine 1 mM) of the same molecule?
A: 1645±426 pA

Q: And the “Hill slope nH” value [3]?
A: 2.4
